For 13 compounds, IC50 results are on record in US20040152740A1, “Arylglycine derivatives for use as glycine transport inhibitors” (NPS Allelix Corporation, priority 2002, published 2004).

The test deals with T1, human GlyT-2 (Homo sapiens, UniProt Q9Y345).
T1 construct: expressed in transfected cells; elsewhere 'preferably QT-6 cells derived from quail fibroblasts'
T1 sequence (Q9Y345 1-797): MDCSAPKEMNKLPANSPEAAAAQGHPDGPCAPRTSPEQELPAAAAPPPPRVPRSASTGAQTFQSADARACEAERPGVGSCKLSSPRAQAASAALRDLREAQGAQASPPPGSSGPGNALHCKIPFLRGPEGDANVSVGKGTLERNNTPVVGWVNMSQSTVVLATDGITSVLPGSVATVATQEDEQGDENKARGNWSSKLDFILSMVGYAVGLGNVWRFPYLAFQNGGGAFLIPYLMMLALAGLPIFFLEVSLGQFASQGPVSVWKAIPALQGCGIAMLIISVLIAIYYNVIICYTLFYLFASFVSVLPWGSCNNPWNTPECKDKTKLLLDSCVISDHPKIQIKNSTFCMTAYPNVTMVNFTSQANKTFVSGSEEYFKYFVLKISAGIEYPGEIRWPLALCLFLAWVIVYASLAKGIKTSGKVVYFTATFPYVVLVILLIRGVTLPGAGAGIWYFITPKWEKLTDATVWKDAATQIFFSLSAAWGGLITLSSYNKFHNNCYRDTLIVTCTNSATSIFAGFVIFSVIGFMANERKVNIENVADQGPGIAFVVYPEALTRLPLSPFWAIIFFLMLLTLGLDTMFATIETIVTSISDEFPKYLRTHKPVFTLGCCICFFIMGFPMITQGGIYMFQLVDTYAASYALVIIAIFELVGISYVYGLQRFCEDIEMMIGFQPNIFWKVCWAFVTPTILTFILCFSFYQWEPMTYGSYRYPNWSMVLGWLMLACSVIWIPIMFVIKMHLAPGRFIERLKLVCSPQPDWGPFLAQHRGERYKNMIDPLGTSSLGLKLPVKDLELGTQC
In words: Assay of transport via GlyT-2 transporters: [3H]glycine uptake by stably transfected cultured cells. Type of test: cell-based. Particulars: cells stably transfected with human GlyT-2; 50 nM [3H]glycine; ten minutes at 37° C.; read-out: GlyT1 uptake IC50. The procedure: This example illustrates a method for the measurement of glycine uptake by transfected cultured cells.
Cells stably transfected with human GlyT-2 (the homolog of the rat GlyT-2 described by Liu et al., J. Biological Chemistry, 268, 1993:22802-22808) were washed twice with HEPES buffered saline (HBS). The cells were then incubated ten minutes at 37° C., after which a solution containing 50 nM [^3H]glycine (17.5 Ci/mmol) and either (a) no potential competitor, (b) […] or (c) a concentration of a candidate drug. A range of concentrations of the candidate drug was used to generate data for calculating the concentration resulting in 50% of the effect (e.g., the IC50's which are the concentration of drug inhibiting glycine uptake by 50%). The cells were then incubated another ten minutes at 37° C., after which the cells were aspirated and washed three times with ice-cold HBS. The cells were solubilized in scintillant, shaken for thirty minutes, and the radioactivity in the cells was counted using a scintillation counter. Data were compared between the same cells contacted and not contacted by the candidate agent.

By IC50 is commonly meant the midpoint of a concentration-inhibition curve. For the compound `Cc1cccc(C)c1NC(=O)C(NC(=S)Nc1ccccc1S(=O)(=O)N(C)C)c1ccccc1` (stereo not shown) [Example E33.2, N-(2,6-dimethylphenyl)-2-[3-(2-N,N-dimethylsulphonamidophenyl)-thioureido]-2-phenyl acetamide], the IC50 was 48 nM.
On to `Cc1cccc(C)c1NC(=O)C(NC(=S)Nc1ccc(OCCN(C)C)cc1[N+](=O)[O-])c1ccccc1` (stereo not shown) [Example E33.4, N-(2.6-dimethylphenyl)-2-[3-(4-(2-N,N-dimethylamino)ethoxy-2-nitrophenyl)-thioureido]-2-phenyl acetamide], for which the concentration for half-maximal inhibition (IC50) came out at 182 nM.
In the case of `COc1ccc(NC(=S)NC(C(=O)Nc2c(C)cccc2Cl)c2ccccc2)c([N+](=O)[O-])c1` (stereo not shown) [Example E29.1, N-(2-chloro-6-methylphenyl)-2-[3-(4-methoxy-2-nitrophenyl)-thioureido]-2-phenyl acetamide], the IC50 is 22.8 nM.
Consider `COc1ccc(NC(=S)NC(C(=O)Nc2c(C)cccc2C(C)C)c2ccccc2)c([N+](=O)[O-])c1` (stereo not shown) [Example E28.1, N-(2-isopropyl-6-methylphenyl)-2-[3-(4-methoxy-2-nitrophenyl)-thioureido]-2-phenyl acetamide], for which the IC50 worked out at 52.2 nM.
Turning to `CCOc1ccc(NC(=S)NC(C(=O)Nc2c(C)cccc2C)c2ccccc2)c([N+](=O)[O-])c1` (stereo not shown) [Example E33.1, N-(2,6-dimethylphenyl)-2-[3-(4-ethoxy-2-nitrophenyl)-thioureido]-2-phenyl acetamide], the half-inhibitory concentration (IC50) amounted to 49.2 nM.
As for `Cc1cccc(C)c1NC(=O)C(NC(=S)Nc1ccc(OCCN(C)C)cc1C(F)(F)F)c1ccccc1` (stereo not shown) [Example E33.8, N-(2.6-dimethylphenyl)-2-[3-(4-N,N-dimethylaminoethoxy-2-trifluoromethylphenyl)-thioureido]-2-phenyl acetamide], the IC50 stood at 115 nM.
Under `COc1ccc(NC(=S)N[C@H](CC(C)C)C(=O)Nc2c(C)cccc2C)c([N+](=O)[O-])c1` [E51.1*] stands 90.8 nM; under `COc1ccc(NC(=S)NC(CC(C)C)C(=O)Nc2c(C)cccc2C)c([N+](=O)[O-])c1` (stereo not shown) [Example E51.3, N-(2.6-dimethylphenyl)-2-[3-(4-methoxy-2-nitrophenyl)-thioureido]-4-methylpentanamide], 112 nM.
For `COc1ccc(NC(=S)NC(C(=O)Nc2c(C)cccc2C)c2ccccc2)c([N+](=O)[O-])c1` (stereo not shown) [Example E33.6, N-(2,6-dimethylphenyl)-2-[3-(4-methoxy-2-nitrophenyl)-thioureido]-2-phenyl acetamide] the value was 34.4 nM; for `COc1ccc(NC(=S)NC(C(=O)Nc2ccccc2C)c2ccccc2)c([N+](=O)[O-])c1` (stereo not shown) [Example E4.4, N-(2-methylphenyl)-2-[3-(2-nitro-4-methoxyphenyl)-thioureido]-2-phenyl acetamide], 83.8 nM.
Take `Cc1ccccc1NC(=O)[C@H](NC(=S)Nc1ccccc1[N+](=O)[O-])c1ccccc1` [Example E4.2]: the half-inhibitory concentration (IC50) was 77.4 nM.
On to `CCOc1ccc(NC(=S)NC(C(=O)Nc2ccccc2C)c2ccccc2)c([N+](=O)[O-])c1` (stereo not shown) [Example E4.3, N-(2-methylphenyl)-2-[3-(4-ethoxy-2-nitrophenyl)-thioureido]-2-phenyl acetamide], for which the IC50 worked out at 172 nM.
Consider `Cc1cccc(C)c1NC(=O)C(NC(=S)Nc1ccc(S(=O)(=O)N(C)C)cc1[N+](=O)[O-])c1ccccc1` (stereo not shown) [Example E33.5], for which the half-inhibitory concentration (IC50) was determined as 14.2 nM.
